US10941379B2, “Microbial system for biosynthesis of natural and engineered products coupled to in situ extraction in supercritical CO2” (Massachusetts Institute of Technology, priority 2016, dated 2021)
Peptide text beside a SMILES is read from it.

Test system: B. megaterium SR7
Experiment: Biolog GenIII sole carbon source growth
Format: cell-based, Bacillus megaterium
Settings: for Growth in carbon source Biolog plate, +Metals: trace metals-amended plate; for Growth in carbon source Biolog plate, +Metals / Growth in carbon source Biolog plate, I / Growth in carbon source Biolog plate, II: Table 11; for Growth in carbon source Biolog plate, I: unamended plate trial I; for Growth in carbon source Biolog plate, II: unamended plate trial II
Method: Plates were incubated at 37° C. on a plate shaker at 200 rpm and assayed for growth using NADH-dependent colorimetric changes measured by OD490 on a microplate reader (BioTek Synergy 2; BioTek; Winooski, Vt.).

Row | Molecule | Growth in carbon source Biolog plate, +Metals | Growth in carbon source Biolog plate, I | Growth in carbon source Biolog plate, II | Growth on Biolog sole carbon source, SR7 (no metals added, Table 10)
1 | O=C1CC[C@@H](C(=O)O)N1 [L-Pyroglutamic Acid] | +++ | + | + | 
2 | O=P(O)(O)OC[C@H]1OC(O)(CO)[C@@H](O)[C@@H]1O (stereo partly drawn) [D-Fructose-6-PO4] | − | + | − | 
3 | OC[C@H]1O[C@H](OCC2O[C@@H](O)[C@H](O)[C@@H](O)[C@@H]2O)[C@H](O)[C@@H](O)[C@H]1O (stereo partly drawn) [D-Melibiose] | + | + | + | 
4 | OC[C@H]1O[C@@H](O[C@H]2[C@H](O)[C@@H](O)[C@@H](O)O[C@@H]2CO)[C@H](O)[C@@H](O)[C@H]1O [α-D-Lactose] | + | + | + | 
5 | O=P(O)(O)OC[C@H]1OC(O)[C@H](O)[C@@H](O)[C@@H]1O (stereo partly drawn) [D-Glucose-6-PO4] | − | − | − | 
6 | OC[C@@H](O)C(O)[C@H](O)CO [D-Arabitol] | + | + | + | 
7 | O=C[C@@H](O)[C@@H](O)[C@H](O)[C@H](O)CO [D-Mannose] | − | − | − | 
8 | COC(=O)C(C)=O [Methyl Pyruvate] | + | + | + | 
9 | CC(=O)N[C@H]1[C@@H](O)[C@H](O)[C@@H](CO)O[C@H]1O [N-Acetyl-β-D-Mannosamine] | − | − | − | 
10 | O=C(O)[C@@H](O)[C@H](O)[C@H](O)[C@@H](O)C(=O)O [Mucic Acid] | − | − | + | 
11 | C[C@@H](O)[C@H](O)[C@H](O)[C@@H](O)C=O [D-Fucose] | − | − | − | 
12 | CC(=O)N[C@H]1[C@H]([C@H](O)[C@H](O)CO)OC(O)(C(=O)O)C[C@@H]1O (stereo partly drawn) [N-Acetyl Neuraminic Acid] | − | − | − | 
13 | O[C@H]1[C@H](O)[C@@H](O)[C@H](O)[C@@H](O)[C@H]1O [myo-Inositol] | +++ | − | + | 
14 | OC[C@H]1O[C@@H](O[C@H]2[C@H](O)[C@@H](O)[C@H](O)O[C@@H]2CO)[C@H](O)[C@@H](O)[C@@H]1O [D-Cellobiose] | + | + | + | 
15 | NC(=O)[C@@H](O)[C@@H](O)[C@H](O)[C@@H](O)C=O [Glucuronamide] | − | − | − | 
16 | O=C[C@H](O)[C@@H](O)[C@H](O)[C@H](O)C(=O)O [D-Glucuronic Acid] | − | + | + | 
17 | CCC(O)C(=O)O (stereo not drawn) [α-Hydroxy-Butyric Acid] | − | − | − | 
18 | O=C[C@H](O)[C@@H](O)[C@@H](O)[C@H](O)CO [D-Galactose] | + | + | + | 
19 | O=C(O)[C@]1(O)C[C@@H](O)[C@@H](O)[C@H](O)C1 [Quinic Acid] | − | − | + | 
20 | CCC(=O)O [Propionic Acid] | − | − | + | 
21 | N[C@H](CC(=O)O)C(=O)O [D-Aspartic Acid] | − | − | − | 
22 | OC[C@@H](O)[C@@H](O)[C@H](O)[C@@H](O)CO [D-Sorbitol] | + | + | − | 
23 | CO[C@@H]1O[C@H](CO)[C@@H](O)[C@H](O)[C@H]1O [β-Methyl-D-Glucoside] | + | − | + | 
24 | N=C(N)NCCC[C@H](N)C(=O)O [L-Arginine] | +++ | + | + | 
25 | C[C@H](O)[C@H](O)[C@@H](O)[C@@H](O)C=O [L-Rhamnose] | − | − | − | 

Row | Molecule | Growth in carbon source Biolog plate, +Metals | Growth in carbon source Biolog plate, I | Growth in carbon source Biolog plate, II | Growth on Biolog sole carbon source, SR7 (no metals added, Table 10)
26 | COC(=O)[C@@H](C)O [D-Lactic Acid Methyl Ester] | + | + | + | 
27 | O=C[C@H](O)[C@@H](O)[C@@H](O)[C@H](O)C(=O)O [D-Galacturonic Acid] | − | − | + | 
28 | O=C(O)C[C@@H](O)C(=O)O [D-Malic Acid] | − | − | − | 
29 | CC(=O)CC(=O)O [Acetoacetic Acid] | − | − | + | 
30 | Tween 40 | − | − | + | 
31 | O=C(O)Cc1ccc(O)cc1 [p-Hydroxy-Phenylacetic Acid] | − | − | − | 
32 | OC[C@H]1O[C@H](OC[C@H]2O[C@H](OC[C@H]3O[C@H](O[C@]4(CO)O[C@H](CO)[C@@H](O)[C@@H]4O)[C@H](O)[C@@H](O)[C@@H]3O)[C@H](O)[C@@H](O)[C@H]2O)[C@H](O)[C@@H](O)[C@H]1O [Stachyose] | + | + | + | 
33 | OC[C@H]1O[C@H](O[C@H]2O[C@H](CO)[C@@H](O)[C@H](O)[C@H]2O)[C@H](O)[C@@H](O)[C@@H]1O [D-Trehalose] | + | − | + | 
34 | D-Turanose | +++ | + | + | 
35 | OC[C@H]1O[C@H](O[C@H]2[C@H](O)[C@@H](O)[C@H](O)O[C@@H]2CO)[C@H](O)[C@@H](O)[C@@H]1O [D-Maltose] | + | − | + | −
36 | OC[C@H]1O[C@H](OC[C@H]2O[C@H](O[C@]3(CO)O[C@H](CO)[C@@H](O)[C@@H]3O)[C@H](O)[C@@H](O)[C@@H]2O)[C@H](O)[C@@H](O)[C@H]1O [D-Raffinose] | +++ | − | + | 
37 | N[C@@H](CO)C(=O)O [L-Serine] | − | + | + | 
38 | CCC(=O)C(=O)O [α-Keto-Butyric Acid] | − | − | − | 
39 | O=CO [Formic Acid] | − | + | − | 
40 | NCC(=O)N1CCC[C@H]1C(=O)O [Glycyl-L-Proline] (H-Gly-Pro-OH) | − | − | − | 
41 | OC[C@H]1O[C@@H](n2cnc3c(O)ncnc32)[C@H](O)[C@@H]1O [Inosine] | + | − | + | 
42 | O=C(CO)[C@@H](O)[C@H](O)[C@H](O)CO [D-Fructose] | + | + | + | 
43 | O=C(O)CC(O)(CC(=O)O)C(=O)O [Citric Acid] | +++ | +++ |  | 
44 | CC(=O)N[C@H]1C(O)O[C@H](CO)[C@H](O)[C@@H]1O (stereo partly drawn) [N-Acetyl-D-Galactosamine] | − | + | − | 
45 | O=C1O[C@H]([C@@H](O)CO)[C@@H](O)[C@@H]1O [L-Galactonic Acid Lactone] | − | − | + | 
46 | NCCCC(=O)O [Υ-Amino-Butryric Acid] | +++ | − | + | 
47 | OCC(O)CO [Glycerol] | + | + | + | 
48 | Gentiobiose | + | + | + | 
49 | D-Salicin | + | + | + | 
